From PMC12259270, “Sensory neuron–expressed FGF13 controls nociceptive signaling in diabetic neuropathy models” (The Journal of Clinical Investigation, 2025)
“And” between values parts separate entries of the source, which are not always exact repeats. Identical values can stand only once. Residues, ends and D or L forms follow the SMILES beside them. *: point of attachment. Cbz = O=C(OCc1ccccc1)*; OtBu = CC(C)(C)O*

Assays:
[1] = tested on: FGF13 and Nav1.7 colocalization in hIPSC-derived sensory neurons; test: Immunocytochemistry, FGF13 and Nav1.7 colocalization in RealDRG; assay type: cell-based, human; conditions: Capsaicin, N 39
Procedure: After treatment, coverslips containing hIPSC-derived sensory neurons were fixed with 4% PFA/4% sucrose for 15 minutes, permeabilized for 5 minutes using 0.1% Triton X-100 in PBS and blocked with 10% Normal Goat Serum (ThermoFisher Scientific) for 30 minutes. Cells were stained using primary antibodies ms IgG1 Nav1.7 […]
Tubulin (Abcam, catalog # ab18207; 1:2000) overnight at 4∘C in 3% BSA. Isotype specific secondary antibodies ms IgG1 Alexa 568 (Life Technologies, catalog # A-21124; 1:200), ms IgG2a Alexa 647 (Life Technologies, […]
applied for 2 hours. After washing, cell membranes were labeled using CellBrite Cytoplasmic Membrane Dye (Biotium) according to manufacturer directions. After final washing, coverslips were mounted using ProLong Gold Antifade Mountant (ThermoFisher). hIPSC-derived sensory neurons were fixed at day 14 in buffered formalin (10 wt%/vol%, Fisher Scientific 23-305-510) for 10 minutes, permeabilized in DPBS plus Triton X-100 (0.2 vol%/vol%, MilliporeSigma, T8787-100ML), blocked in DPBS plus bovine serum albumin (1 wt%/vol%, MilliporeSigma A3059-100G) and Tween-20 (0.1 vol% MilliporeSigma P1379) for 2 hours, and incubated with primary antibodies overnight. Cultures were washed twice with blocking solution and incubated 1 hour with secondary antibodies. 4′,6-diamidino-2-phenylindole dilactate (DAPI, Thermo Fisher D3571) was added for 10 minutes before washing three times in DPBS. Antibodies used include: TUJ1 (1:250, MilliporeSigma MAB1637), […]
and Alexa Fluor 555 Donkey anti-Rabbit (1:500, Thermo Fisher Scientific A-31572). Negative controls included

C57BL/6 mice [2] = test: Capsaicin-induced thermal hypersensitivity (Hargreaves); assay type: in vivo, mouse; conditions: Figure 3 B lower block (Vehicle vs PW 164), individual animals 1-20
Excerpt: (§1) FGF13 is a neuronal gene ubiquitously transcribed in DRG neuronal subtypes ([43]–[46]). To investigate neuronal subtype enrichment of the FGF13 transcript, we examined a gene panel including FGF13, SCN9A, and several marker genes in mouse single-cell transcriptomic data (Supplemental Figure 10) ([43]–[46]). […] Critically, putative silent nociceptors marked by somatostatin (SST), and the nicotinic cholinergic receptor α-3 subunit (CHRNA3) contribute to development of inflammatory mechanical hyperalgesia ([47]). […] We next determined if PW164 modulation of the FGF13/Nav1.7 complex could suppress nociceptive behaviors in WT mice. We tested whether intraplantar (i.pl.) injection (5 μL) of PW164 altered hind paw withdrawal in response to low or high intensity von Frey filament (LVF or HVF, respectively) mechanical stimulation (Figure 3A). […] Next, we evaluated PW164’s effect on mechanical and thermal hindpaw sensitivity in capsaicin-induced nociceptive hypersensitivity models. […] Next, we performed in vivo target validation in WT mice that received an intrathecal (i.t.) injection in L5 of AAV2-shFGF13 (6 μL, viral titers 1 × 10^12 vector genomes (vg)/mL); a control group received an equal number of AAV2-shCTRL particles (Figure 3C).
(§2) Experiments were performed on 6- to 12-week-old male C57BL/6 mice (The Jackson Laboratory, Bar Harbor, ME) housed in the AAALAC-accredited facility at the University of Texas Medical Branch. Mice were group-housed with up to 5 mice per cage on a 12-to-12-hour light–dark cycle and had access to water and food ad libitum. All protocols were approved by the Institutional Animal Care and Use Committee (IACUC) at the University of Texas Medical Branch and in accordance with the National Institutes of Health (NIH) guidelines.
(§3) PW164 and ZL192 were dissolved in DMSO and saline in a ratio of 1:10. 0.1% capsaicin (10% ethanol, 10% Tween-20 in saline; Sigma-Aldrich). All the compounds were injected at the center of the hind paw. The control group received a DMSO-saline mixture. […]
(§4) AAV2 viral particles packaged by the University of North Carolina Gene Therapy Core Facility (viral titer ranging […]
Before intrathecal injections in the lumbar region, mice were maintained in an anesthetizing box with 2% isoflurane to induce unconsciousness. Six microliters of viral vector were gently injected into the CSF through a 30-gauge needle with a Hamilton syringe in the lumbar area between vertebrae L4 and L5 by gently gripping the iliac crest of the mouse and inserting the needle with an angle of 45°. The correct procedure was confirmed by the mouse’s tail reflexiv e flick. […]

C57BL/6 mice [3] = test: Mechanical sensitivity (von Frey, LVF/HVF) after intraplantar injection, mice without capsaicin; assay type: in vivo, mouse; parameters: key to LVF Mean / HVF Mean: % withdrawals from 10 consecutive von Frey stimulations; conditions: Bup 7 mg/mL, without capsaicin
Procedure: as §2, §3
(§5) Assessment of mechanical sensitivity
Mechanical sensitivity was assessed using von Frey filaments (VFF 0.1g and 1.0 g force) in mice that were either naïve or received intraplantar (i.p.) injection of capsaicin. VFFs were applied at the injection site (capsaicin or drug unilateral intraderma l injection at the center of the hind paw using a 30 -G needle). VFF of 1.0 g force, which evokes a 40–60% withdrawal response in the naïve condition, was used to detect hyperalgesia, and VFF of 0.1 g […]
mechanical sensitivity was expressed as % withdrawals from 10 consecutive stimulations. […]

C57BL/6 mice [4] = test: Capsaicin-induced mechanical hypersensitivity (von Frey); assay type: in vivo, mouse; parameters: LVF Mean / HVF Mean / MECHANICAL LVF / MECHANICAL HVF: unit not given here; conditions: Cap + Bup 7 mg/mL
Excerpt: as §1, §2, §3
Bupivacaine was prepared from a 1:2 dilution with sterile 0.9% saline and locally injected in the center of the paw at 7 mg/ml.
as §4
Before intrathecal injections in the lumbar region, mice were maintained in an anesthetizing box with 2% isoflurane to induce unconsciousness. Six microliters of viral vector were gently injected into the CSF through a 30-gauge needle with a Hamilton syringe in the lumbar area between vertebrae L4 and L5 by gently gripping the iliac crest of the mouse and inserting the needle with an angle of 45°. The correct procedure was confirmed by the mouse’s tail reflexiv e flick.
as §5
Mechanical sensitivity was assessed using von Frey filaments (VFF 0.1g and 1.0 g force) in mice that were either naïve or received intraplantar (i.p.) injection of capsaicin. VFFs were applied at the injection site (capsaicin or […]

[5] = target: T1, FGF13 (protein used in surface plasmon resonance) (UniProt Q92913-2 1-192); test: SPR; cell-free; FGF13 with Nav1.7 CTD, no compound; conditions: both partners purified
T1 construct: Fibroblast growth factor 13; also called fibroblast growth factor 13
T1 sequence (looked up): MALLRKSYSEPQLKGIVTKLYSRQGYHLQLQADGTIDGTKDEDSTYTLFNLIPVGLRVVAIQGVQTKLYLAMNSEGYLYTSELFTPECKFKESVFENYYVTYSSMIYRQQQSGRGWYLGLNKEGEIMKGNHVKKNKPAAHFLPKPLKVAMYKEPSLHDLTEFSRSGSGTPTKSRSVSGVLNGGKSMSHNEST

COc1cc(CNC(=O)CCCC/C=C/C(C)C)ccc1O [Capsaicin]
Figure S6C, Mean ([1]; Distance 7.1166 microns): 236.646
Figure S6C, Mean ([1]; Distance 7.2484 microns): 412.139
Figure S6C, Mean ([1]; Distance 7.3801 microns): 777.284
Figure S6C, Mean ([1]; Distance 7.5119 microns): 1294.71
Figure S6C, Mean ([1]; Distance 7.6437 microns): 1747.86
Figure S6C, Mean ([1]; Distance 7.7755 microns): 1996.82
Figure S6C, Mean ([1]; Distance 7.9073 microns): 2041.85
Figure S6C, Mean ([1]; Distance 8.0391 microns): 2010.31
Figure S6C, Mean ([1]; Distance 8.1709 microns): 1934.86
Figure S6C, Mean ([1]; Distance 8.3027 microns): 1848.17
Figure S6C, Mean ([1]; Distance 8.4344 microns): 1793.9
Figure S6C, Mean ([1]; Distance 8.5662 microns): 1740.61
Figure S6C, Mean ([1]; Distance 8.698 microns): 1651.29
Figure S6C, Mean ([1]; Distance 8.8298 microns): 1564.27
Figure S6C, Mean ([1]; Distance 8.9616 microns): 1524.73
Figure S6C, Mean ([1]; Distance 9.0934 microns): 1474.75

COC(=O)[C@@H](NC(=O)[C@H](CCC(=O)OC(C)(C)C)NC(=O)[C@H](CC(C)C)NC(=O)[C@@H]1CCCN1C(=O)OCc1ccccc1)C(C)C [PW 164] (Cbz-PLE(OtBu)V-OMe)
Paw withdrawal latency (C57BL/6 mice [2]; Time (h) 0.5): 6.8 s and 5.5 s (2×) and 2.93 s and 6.4 s and 5.33 s and 6.3 s and 4.8 s and 4.23 s and 4.87 s and 3.47 s and 5.6 s and 4.1 s and 4.4 s and 2.87 s and 8.3 s and 5.93 s and 5 s and 4.2 s and 6.1 s
Paw withdrawal latency (C57BL/6 mice [2]; Time (h) 1): 11.43 s and 10.43 s and 13.57 s and 12.1 s and 12.5 s and 12.33 s and 11.6 s and 11.33 s and 13.2 s and 15.4 s and 16 s and 12.63 s and 16.3 s and 11.83 s and 17.37 s and 20 s and 12.8 s and 12.17 s and 18.37 s and 16.47 s
Paw withdrawal latency (C57BL/6 mice [2]; Time (h) 1.5): 12.6 s and 12.77 s and 10.5 s and 11.3 s and 13.4 s and 7.9 s and 8 s and 9.27 s and 11.73 s and 9.97 s and 16.43 s and 14.37 s and 15.37 s and 12.23 s and 13.13 s and 18.63 s and 15.2 s and 17.17 s and 10.23 s and 9.23 s
Paw withdrawal latency (C57BL/6 mice [2]; Time (h) 2.5): 12.63 s and 12.73 s and 10.73 s and 10.97 s and 13.83 s and 8.87 s and 8.63 s and 9.6 s and 15.4 s and 19.5667 s and 15.7667 s and 13.6 s and 14.9333 s (2×) and 14.7333 s and 11.4667 s and 11.1333 s and 10.5667 s and 15.1 s and 13.2 s
Paw withdrawal latency (C57BL/6 mice [2]; Time (h) BN (baseline)): 12.77 s and 12 s and 12.53 s and 10.8 s and 11.1 s and 12.43 s and 10.77 s (2×) and 12.33 s (2×) and 12.47 s (2×) and 14.53 s and 12.9 s and 11.27 s (2×) and 13.5 s and 11.07 s and 12.6 s and 10.67 s

CCCCN1CCCCC1C(=O)Nc1c(C)cccc1C (racemic) [Bup]
HVF Mean (C57BL/6 mice [3]; Time (h) 0): 52
HVF Mean (C57BL/6 mice [3]; Time (h) 0.5): 8
HVF Mean (C57BL/6 mice [3]; Time (h) 1): 58
HVF Mean (C57BL/6 mice [3]; Time (h) 1.5): 54
HVF Mean (C57BL/6 mice [3]; Time (h) 2): 54
HVF Mean (C57BL/6 mice [4]; Time (h) 0): 52
LVF Mean (C57BL/6 mice [4]; Time (h) 0): 0
HVF Mean (C57BL/6 mice [4]; Time (h) 0.5): 100
LVF Mean (C57BL/6 mice [4]; Time (h) 0.5): 66
HVF Mean (C57BL/6 mice [4]; Time (h) 0.75): 6
LVF Mean (C57BL/6 mice [4]; Time (h) 0.75): 0
HVF Mean (C57BL/6 mice [4]; Time (h) 1): 58
LVF Mean (C57BL/6 mice [4]; Time (h) 1): 0
HVF Mean (C57BL/6 mice [4]; Time (h) 1.5): 98
LVF Mean (C57BL/6 mice [4]; Time (h) 1.5): 22
HVF Mean (C57BL/6 mice [4]; Time (h) 2): 100
LVF Mean (C57BL/6 mice [4]; Time (h) 2): 52

B1: Nav1.7 CTD (fragment used in surface plasmon resonance) (domain or fragment)
chain: QEDVSATVIQRAYRRYRLRQNVK
modifications: synthetic peptide from supplementary SPR methods (stated as residues 1876-1899, 23 aa); used unconjugated as analyte over immobilized FGF13, and biotinylated (biotin position not stated) when …
Kd [5]: 75 ± 3 nM
